Usually EC50 stands for the concentration that produces a half-maximal response.

Data on three molecules can be found in patent US9534035B2, “Cell lines expressing ENaC and methods using them” (priority 2008, dated 2017).

“Also recorded” adds a separate entry of the source. Where two headings read alike, the source gives them in different places.

Holding throughout (assay type): cell-based
One assay has as its target T1, ENaC (Homo sapiens, UniProt P37088+P51168+P51170, A314G).
T1 construct: expressed in transfected cells
T1 sequence (P37088 1-669): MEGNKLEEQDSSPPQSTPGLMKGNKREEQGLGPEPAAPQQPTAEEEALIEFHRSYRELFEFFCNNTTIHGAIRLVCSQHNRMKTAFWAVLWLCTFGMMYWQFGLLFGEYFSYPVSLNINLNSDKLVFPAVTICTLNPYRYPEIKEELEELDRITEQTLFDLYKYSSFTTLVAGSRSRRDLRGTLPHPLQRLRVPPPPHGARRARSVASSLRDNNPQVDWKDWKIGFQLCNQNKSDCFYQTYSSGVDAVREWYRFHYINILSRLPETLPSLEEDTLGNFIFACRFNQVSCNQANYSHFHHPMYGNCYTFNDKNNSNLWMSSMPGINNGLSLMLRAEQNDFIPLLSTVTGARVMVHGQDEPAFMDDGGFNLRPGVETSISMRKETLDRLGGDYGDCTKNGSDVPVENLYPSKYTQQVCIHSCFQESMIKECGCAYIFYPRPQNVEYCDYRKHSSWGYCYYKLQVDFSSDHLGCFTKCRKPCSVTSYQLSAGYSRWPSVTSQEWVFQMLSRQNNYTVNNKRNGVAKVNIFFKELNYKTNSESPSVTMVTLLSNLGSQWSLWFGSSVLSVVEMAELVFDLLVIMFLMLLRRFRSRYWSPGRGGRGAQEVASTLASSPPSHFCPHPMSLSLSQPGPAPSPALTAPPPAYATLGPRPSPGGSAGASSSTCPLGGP
T1 sequence (P51168 1-640 A314G): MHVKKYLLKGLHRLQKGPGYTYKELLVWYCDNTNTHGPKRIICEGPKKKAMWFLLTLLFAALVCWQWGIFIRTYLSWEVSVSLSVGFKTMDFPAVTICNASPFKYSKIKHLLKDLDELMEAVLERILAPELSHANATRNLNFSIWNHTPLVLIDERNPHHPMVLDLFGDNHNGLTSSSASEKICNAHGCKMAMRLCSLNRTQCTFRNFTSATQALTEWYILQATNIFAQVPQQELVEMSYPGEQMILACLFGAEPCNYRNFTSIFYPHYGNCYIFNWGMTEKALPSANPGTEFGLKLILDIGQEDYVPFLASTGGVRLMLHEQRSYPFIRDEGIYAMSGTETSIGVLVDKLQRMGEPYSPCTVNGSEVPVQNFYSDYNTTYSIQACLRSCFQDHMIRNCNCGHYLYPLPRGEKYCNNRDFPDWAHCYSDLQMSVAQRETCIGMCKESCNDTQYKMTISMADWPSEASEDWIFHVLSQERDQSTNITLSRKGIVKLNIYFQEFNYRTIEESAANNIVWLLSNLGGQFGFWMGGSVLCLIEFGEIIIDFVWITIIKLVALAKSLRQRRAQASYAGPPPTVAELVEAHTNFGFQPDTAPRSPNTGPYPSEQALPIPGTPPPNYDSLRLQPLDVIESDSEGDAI
T1 sequence (P51170 1-649): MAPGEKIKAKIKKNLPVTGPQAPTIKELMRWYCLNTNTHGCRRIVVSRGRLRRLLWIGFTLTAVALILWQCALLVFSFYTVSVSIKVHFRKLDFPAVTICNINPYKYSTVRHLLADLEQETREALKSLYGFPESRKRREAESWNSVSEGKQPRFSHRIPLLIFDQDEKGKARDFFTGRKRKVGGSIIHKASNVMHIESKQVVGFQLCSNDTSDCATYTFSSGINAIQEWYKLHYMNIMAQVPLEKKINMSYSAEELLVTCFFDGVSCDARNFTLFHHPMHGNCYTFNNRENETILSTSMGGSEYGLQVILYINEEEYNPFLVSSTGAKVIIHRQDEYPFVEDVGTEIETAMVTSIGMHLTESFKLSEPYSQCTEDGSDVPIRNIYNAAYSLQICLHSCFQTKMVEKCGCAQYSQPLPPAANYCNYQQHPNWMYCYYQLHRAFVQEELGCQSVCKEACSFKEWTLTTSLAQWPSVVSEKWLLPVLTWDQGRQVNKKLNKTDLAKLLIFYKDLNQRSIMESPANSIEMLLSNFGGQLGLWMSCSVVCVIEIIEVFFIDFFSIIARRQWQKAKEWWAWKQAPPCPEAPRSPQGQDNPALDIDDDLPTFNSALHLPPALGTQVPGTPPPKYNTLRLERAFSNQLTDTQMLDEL
Description: membrane potential assay with stable ENaC cell line (CHO). On the procedure: The influx of positively-charged sodium ions following the activation of ENaC results in a change in the membrane potential of the cell. To test the activity of ENaC cell lines, we used a membrane potential assay. Such assays are well known in the art. […] Rev. Biophys. […]
The assay plates were maintained in a 37° C. cell culture incubator under 5% CO2 for 19-21 hours. The media was then removed from the assay plates and 20 μl blue membrane potential dye (Molecular Devices Inc) was added and the cells were incubated for 1 hr at room temperature. Test compounds were solubilized in dimethylsulfoxide, diluted in a phosphate buffer and loaded into 384 well polypropylene micro-titer plates. The cell and compound plates were loaded into an FDSS instrument (Hamamatsu) which measures fluorescence (relative fluorescence units) from the plates over time. Fluorescence values were continuously collected from the beginning of the experiment and following addition of test compounds to report baseline values and any changes due to the addition of test compounds. Test compounds in assay buffer or assay buffer alone were then added to the cells and flluorescence values were collected for two minutes.

Assay [1] concerns proteolytically cleaved ENaC isoforms. The assay is described as follows: dose response of inhibitors across trypsin concentrations, membrane potential FDSS protocol. Particulars: FIG. 9, trypsin 0 to 2.25 mg/ml, IC50 plotted against protease concentration. How it is done:
We also tested the ability of novel ENaC inhibitors (identified in Example 4) to inhibit proteolytically cleaved ENaC. […] The cells were loaded with membrane potential dye concurrently with the trypsin. […] values were calculated and plotted as a function of protease concentration. […] The different isoforms of ENaC can be pursed in drug discovery to more effectively address the role of the different isoforms of ENaC or the effect or role of proteolysis in disease.

For a further assay, the system named is proteolyzed ENaC Form 24. Description: membrane potential assay, trypsin-treated ENaC cells. Conditions: FIG. 8 dose response.
Setting [2] is: ENaC cell line maintained in 90 mM sodium media, read-out: EC50 (approx).
The mark [3] stands for this setting: ENaC cell line maintained in 150 mM sodium media, read-out: EC50 (approx).
Setting [4] is: a cell line of the invention, general statement, read-out: EC50.

Description for proteolyzed ENaC Form 24: After a 1 hour incubation with a dye-protease solution at room temperature, the assay was run using the FDSS (Hamamatsu Corporation) as described above.
The experiment was performed using several treatment groups, each receiving a different concentration of trypsin (0 to 3 mg/ml). The cells were incubated with the trypsin for 1 hour at room temperature concurrently with membrane potential dye (standard protocol). […] We further characterized these proteolytically modified isoforms for their ability to conduct sodium.
The isoform specific assay described above was performed with MBP dye solution with trypsin concentrations as listed (Table 2).

For `[Cl-].[Na+]` [NaCl, sodium chloride], the EC50 was approximately 48 mM on ENaC (setting [2]); approximately 80 mM on ENaC (setting [3]); 48 mM on ENaC (FIG. 4, read-out: EC50); approximately 50 mM at ENaC (setting [4]).
Consider `[Cl-].[Li+]` [LiCl, lithium chloride], for which the concentration giving a half-maximal response (EC50) at ENaC (setting [2]) was approximately 33 mM; on ENaC (setting [3]) it was approximately 82 mM; at ENaC (setting [4]) it was approximately 35 mM.
Take `N=C(N)NC(=O)c1nc(Cl)c(N)nc1N` [Amiloride, amiloride]: the “inhibition of proteolytically cleaved ENaC isoforms” value in assay [1] is “inhibit a unique subset of ENaC isoforms”. For the same molecule, the “inhibition of cleaved ENaC form 24” value in the assay with proteolyzed ENaC Form 24 was “much less effective or not effective; also recorded: not effective to inhibit Form 24”. At ENaC, the “block of the sodium response” value is on record as “essentially all of the sodium response was blocked” and the “inhibition of uncleaved (non-proteolyzed) ENaC” value was “effectively inhibits; also recorded: almost completely inhibit”.
